Data published in ChEMBL document CHEMBL5380831, “Azolylpyrimidinediols as Novel Structural Scaffolds of DNA-Groove Binders against Intractable Acinetobacter baumannii” (J Med Chem, 2023).
In brackets after ≈: the same amount, converted by molar mass.

System: Pseudomonas aeruginosa
Experiment: Antibacterial activity against Pseudomonas aeruginosa assessed as bacterial growth inhibition incubated for 24 hrs by broth microdilution method
Type: functional

| SMILES | MIC |
| --- | --- |
| Cc1cn(-c2ccnc(N(CCO)CCO)n2)cn1 | 973 µM (≈ 256 µg/mL) |
| Clc1ccc2c3ccccc3n(-c3nccc(-n4cncn4)n3)c2c1 | 3 µM (≈ 1.04 µg/mL) |
| O=[N+]([O-])c1cn(-c2ccnc(N(CCO)CCO)n2)cn1 | 435 µM (≈ 128 µg/mL) |
| O=C1c2cccc3c(N4CCN(c5nccc(-n6cncn6)n5)CC4)ccc(c23)C(=O)N1CCO | 545 µM (≈ 256 µg/mL) |
| Cc1ncc([N+](=O)[O-])n1-c1ccnc(N(CCO)CCO)n1 | 415 µM (≈ 128 µg/mL) |
| CO/N=C(/C(=O)N1CCN(c2nccc(-n3cncn3)n2)CC1)c1csc(N)n1 | 587 µM (≈ 243 µg/mL) |

System: Acinetobacter baumannii
Experiment: Antibacterial activity against Acinetobacter baumannii assessed as bacterial growth inhibition incubated for 24 hrs by broth microdilution method
Type: functional

| SMILES | MIC |
| --- | --- |
| Cc1cn(-c2ccnc(N(CCO)CCO)n2)cn1 | 973 µM (≈ 256 µg/mL) |
| Clc1ccc2c3ccccc3n(-c3nccc(-n4cncn4)n3)c2c1 | 740 µM (≈ 257 µg/mL) |
| O=C1c2cccc3c(N4CCN(c5nccc(-n6cncn6)n5)CC4)ccc(c23)C(=O)N1CCO | 272 µM (≈ 128 µg/mL) |
| Cc1ncc([N+](=O)[O-])n1-c1ccnc(N(CCO)CCO)n1 | 415 µM (≈ 128 µg/mL) |
| CO/N=C(/C(=O)N1CCN(c2nccc(-n3cncn3)n2)CC1)c1csc(N)n1 | 294 µM (≈ 122 µg/mL) |

System: Staphylococcus aureus
Experiment: Antibacterial activity against Staphylococcus aureus assessed as bacterial growth inhibition incubated for 24 hrs by broth microdilution method
Type: functional

| SMILES | MIC |
| --- | --- |
| Cc1cn(-c2ccnc(N(CCO)CCO)n2)cn1 | 973 µM (≈ 256 µg/mL) |
| Clc1ccc2c3ccccc3n(-c3nccc(-n4cncn4)n3)c2c1 | 740 µM (≈ 257 µg/mL) |
| O=[N+]([O-])c1cn(-c2ccnc(N(CCO)CCO)n2)cn1 | 435 µM (≈ 128 µg/mL) |
| O=C1c2cccc3c(N4CCN(c5nccc(-n6cncn6)n5)CC4)ccc(c23)C(=O)N1CCO | 545 µM (≈ 256 µg/mL) |
| Cc1ncc([N+](=O)[O-])n1-c1ccnc(N(CCO)CCO)n1 | 415 µM (≈ 128 µg/mL) |
| CO/N=C(/C(=O)N1CCN(c2nccc(-n3cncn3)n2)CC1)c1csc(N)n1 | 294 µM (≈ 122 µg/mL) |

System: Enterococcus faecalis
Experiment: Antibacterial activity against Enterococcus faecalis assessed as bacterial growth inhibition incubated for 24 hrs by broth microdilution method
Type: functional

| SMILES | MIC |
| --- | --- |
| Cc1cn(-c2ccnc(N(CCO)CCO)n2)cn1 | 973 µM (≈ 256 µg/mL) |
| Clc1ccc2c3ccccc3n(-c3nccc(-n4cncn4)n3)c2c1 | 185 µM (≈ 64.2 µg/mL) |
| O=[N+]([O-])c1cn(-c2ccnc(N(CCO)CCO)n2)cn1 | 870 µM (≈ 256 µg/mL) |
| O=C1c2cccc3c(N4CCN(c5nccc(-n6cncn6)n5)CC4)ccc(c23)C(=O)N1CCO | 545 µM (≈ 256 µg/mL) |
| Cc1ncc([N+](=O)[O-])n1-c1ccnc(N(CCO)CCO)n1 | 406 µM (≈ 125 µg/mL) |
| CO/N=C(/C(=O)N1CCN(c2nccc(-n3cncn3)n2)CC1)c1csc(N)n1 | 294 µM (≈ 122 µg/mL) |

System: Staphylococcus aureus
Experiment: Antibacterial activity against Staphylococcus aureus ATCC 29213 assessed as bacterial growth inhibition incubated for 24 hrs by broth microdilution method
Type: functional

| SMILES | MIC |
| --- | --- |
| Cc1cn(-c2ccnc(N(CCO)CCO)n2)cn1 | 973 µM (≈ 256 µg/mL) |
| Clc1ccc2c3ccccc3n(-c3nccc(-n4cncn4)n3)c2c1 | 740 µM (≈ 257 µg/mL) |
| O=[N+]([O-])c1cn(-c2ccnc(N(CCO)CCO)n2)cn1 | 870 µM (≈ 256 µg/mL) |
| O=C1c2cccc3c(N4CCN(c5nccc(-n6cncn6)n5)CC4)ccc(c23)C(=O)N1CCO | 9 µM (≈ 4.23 µg/mL) |
| CO/N=C(/C(=O)N1CCN(c2nccc(-n3cncn3)n2)CC1)c1csc(N)n1 | 587 µM (≈ 243 µg/mL) |

System: Pseudomonas aeruginosa
Experiment: Antibacterial activity against Pseudomonas aeruginosa ATCC 27853 assessed as bacterial growth inhibition incubated for 24 hrs by broth microdilution method
Type: functional

| SMILES | MIC |
| --- | --- |
| Cc1cn(-c2ccnc(N(CCO)CCO)n2)cn1 | 973 µM (≈ 256 µg/mL) |
| Clc1ccc2c3ccccc3n(-c3nccc(-n4cncn4)n3)c2c1 | 740 µM (≈ 257 µg/mL) |
| O=[N+]([O-])c1cn(-c2ccnc(N(CCO)CCO)n2)cn1 | 435 µM (≈ 128 µg/mL) |
| O=C1c2cccc3c(N4CCN(c5nccc(-n6cncn6)n5)CC4)ccc(c23)C(=O)N1CCO | 545 µM (≈ 256 µg/mL) |
| Cc1ncc([N+](=O)[O-])n1-c1ccnc(N(CCO)CCO)n1 | 1660 µM (≈ 512 µg/mL) |
| CO/N=C(/C(=O)N1CCN(c2nccc(-n3cncn3)n2)CC1)c1csc(N)n1 | 294 µM (≈ 122 µg/mL) |

System: Klebsiella pneumoniae
Experiment: Antibacterial activity against Klebsiella pneumoniae assessed as bacterial growth inhibition incubated for 24 hrs by broth microdilution method
Type: functional

| SMILES | MIC |
| --- | --- |
| Cc1cn(-c2ccnc(N(CCO)CCO)n2)cn1 | 973 µM (≈ 256 µg/mL) |
| Clc1ccc2c3ccccc3n(-c3nccc(-n4cncn4)n3)c2c1 | 740 µM (≈ 257 µg/mL) |
| O=[N+]([O-])c1cn(-c2ccnc(N(CCO)CCO)n2)cn1 | 870 µM (≈ 256 µg/mL) |
| O=C1c2cccc3c(N4CCN(c5nccc(-n6cncn6)n5)CC4)ccc(c23)C(=O)N1CCO | 545 µM (≈ 256 µg/mL) |
| Cc1ncc([N+](=O)[O-])n1-c1ccnc(N(CCO)CCO)n1 | 415 µM (≈ 128 µg/mL) |
| CO/N=C(/C(=O)N1CCN(c2nccc(-n3cncn3)n2)CC1)c1csc(N)n1 | 147 µM (≈ 60.9 µg/mL) |

System: Escherichia coli
Experiment: Antibacterial activity against Escherichia coli assessed as bacterial growth inhibition incubated for 24 hrs by broth microdilution method
Type: functional

| SMILES | MIC |
| --- | --- |
| Cc1cn(-c2ccnc(N(CCO)CCO)n2)cn1 | 973 µM (≈ 256 µg/mL) |
| Clc1ccc2c3ccccc3n(-c3nccc(-n4cncn4)n3)c2c1 | 740 µM (≈ 257 µg/mL) |
| O=[N+]([O-])c1cn(-c2ccnc(N(CCO)CCO)n2)cn1 | 435 µM (≈ 128 µg/mL) |
| O=C1c2cccc3c(N4CCN(c5nccc(-n6cncn6)n5)CC4)ccc(c23)C(=O)N1CCO | 545 µM (≈ 256 µg/mL) |
| Cc1ncc([N+](=O)[O-])n1-c1ccnc(N(CCO)CCO)n1 | 415 µM (≈ 128 µg/mL) |
| CO/N=C(/C(=O)N1CCN(c2nccc(-n3cncn3)n2)CC1)c1csc(N)n1 | 294 µM (≈ 122 µg/mL) |

System: Escherichia coli
Experiment: Antibacterial activity against Escherichia coli ATCC 25922 assessed as bacterial growth inhibition incubated for 24 hrs by broth microdilution method
Type: functional

| SMILES | MIC |
| --- | --- |
| Cc1cn(-c2ccnc(N(CCO)CCO)n2)cn1 | 1950 µM (≈ 512 µg/mL) |
| Clc1ccc2c3ccccc3n(-c3nccc(-n4cncn4)n3)c2c1 | 740 µM (≈ 257 µg/mL) |
| O=[N+]([O-])c1cn(-c2ccnc(N(CCO)CCO)n2)cn1 | 870 µM (≈ 256 µg/mL) |
| O=C1c2cccc3c(N4CCN(c5nccc(-n6cncn6)n5)CC4)ccc(c23)C(=O)N1CCO | 545 µM (≈ 256 µg/mL) |
| Cc1ncc([N+](=O)[O-])n1-c1ccnc(N(CCO)CCO)n1 | 831 µM (≈ 256 µg/mL) |
| CO/N=C(/C(=O)N1CCN(c2nccc(-n3cncn3)n2)CC1)c1csc(N)n1 | 147 µM (≈ 60.9 µg/mL) |

System: Staphylococcus aureus
Experiment: Antibacterial activity against methicillin-resistant Staphylococcus aureus assessed as bacterial growth inhibition incubated for 24 hrs by broth microdilution method
Type: functional

| SMILES | MIC |
| --- | --- |
| Cc1cn(-c2ccnc(N(CCO)CCO)n2)cn1 | 973 µM (≈ 256 µg/mL) |
| Clc1ccc2c3ccccc3n(-c3nccc(-n4cncn4)n3)c2c1 | 740 µM (≈ 257 µg/mL) |
| O=[N+]([O-])c1cn(-c2ccnc(N(CCO)CCO)n2)cn1 | 870 µM (≈ 256 µg/mL) |
| O=C1c2cccc3c(N4CCN(c5nccc(-n6cncn6)n5)CC4)ccc(c23)C(=O)N1CCO | 545 µM (≈ 256 µg/mL) |
| Cc1ncc([N+](=O)[O-])n1-c1ccnc(N(CCO)CCO)n1 | 831 µM (≈ 256 µg/mL) |
| CO/N=C(/C(=O)N1CCN(c2nccc(-n3cncn3)n2)CC1)c1csc(N)n1 | 294 µM (≈ 122 µg/mL) |

System: Staphylococcus aureus
Experiment: Antibacterial activity against Staphylococcus aureus ATCC 25923 assessed as bacterial growth inhibition incubated for 24 hrs by broth microdilution method
Type: functional

| SMILES | MIC |
| --- | --- |
| Cc1cn(-c2ccnc(N(CCO)CCO)n2)cn1 | 973 µM (≈ 256 µg/mL) |
| Clc1ccc2c3ccccc3n(-c3nccc(-n4cncn4)n3)c2c1 | 740 µM (≈ 257 µg/mL) |
| O=[N+]([O-])c1cn(-c2ccnc(N(CCO)CCO)n2)cn1 | 435 µM (≈ 128 µg/mL) |
| O=C1c2cccc3c(N4CCN(c5nccc(-n6cncn6)n5)CC4)ccc(c23)C(=O)N1CCO | 68 µM (≈ 32 µg/mL) |
| Cc1ncc([N+](=O)[O-])n1-c1ccnc(N(CCO)CCO)n1 | 831 µM (≈ 256 µg/mL) |
| CO/N=C(/C(=O)N1CCN(c2nccc(-n3cncn3)n2)CC1)c1csc(N)n1 | 587 µM (≈ 243 µg/mL) |
